Assay results as given in PubChem BioAssay (NCI).
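96-well plates; 48 h exposure; 5 concentrations. Endpoints by linear interpolation between flanking doses. Not reached: highest tested concentration assigned. GI50 = concentration required for 50% inhibition of growth. TGI: total growth inhibition.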

Columns and labels:
Assay in all cases: DTP human tumour cell line panel, 48 h
T-47D breast = system: T-47D breast
HS 578T breast = system: HS 578T breast
ACHN renal = system: ACHN renal
HT29 colon = system: HT29 colon
OVCAR-4 ovarian = system: OVCAR-4 ovarian
SNB-19 CNS = system: SNB-19 CNS
BT-549 breast = system: BT-549 breast
EKVX NSCLC = system: EKVX NSCLC
LOX IMVI melanoma = system: LOX IMVI melanoma
HCT-15 colon = system: HCT-15 colon
KM12 colon = system: KM12 colon
OVCAR-8 ovarian = system: OVCAR-8 ovarian
M14 melanoma = system: M14 melanoma
NCI/ADR-RES ovarian = system: NCI/ADR-RES ovarian
SW-620 colon = system: SW-620 colon
MALME-3M melanoma = system: MALME-3M melanoma
NCI-H23 lung = system: NCI-H23 lung
MDA-MB-468 breast = system: MDA-MB-468 breast
DU-145 prostate = system: DU-145 prostate
SN12C renal = system: SN12C renal
HOP-92 NSCLC = system: HOP-92 NSCLC
NCI-H522 lung = system: NCI-H522 lung
SNB-75 CNS = system: SNB-75 CNS
UACC-257 melanoma = system: UACC-257 melanoma
MDA-MB-435 = system: MDA-MB-435
SK-MEL-28 melanoma = system: SK-MEL-28 melanoma
SR leukemia = system: SR leukemia
SF-268 CNS = system: SF-268 CNS
HOP-62 NSCLC = system: HOP-62 NSCLC
HCT-116 colon = system: HCT-116 colon
SK-OV-3 ovarian = system: SK-OV-3 ovarian
MOLT-4 leukemia = system: MOLT-4 leukemia
MDA-MB-231 breast = system: MDA-MB-231 breast
OVCAR-5 ovarian = system: OVCAR-5 ovarian
U251 CNS = system: U251 CNS
SF-295 CNS = system: SF-295 CNS
PC-3 prostate = system: PC-3 prostate
IGROV1 ovarian = system: IGROV1 ovarian
RXF 393 renal = system: RXF 393 renal
HCC-2998 colon = system: HCC-2998 colon
RPMI-8226 leukemia = system: RPMI-8226 leukemia
NCI-H460 lung = system: NCI-H460 lung
COLO 205 colon = system: COLO 205 colon
SK-MEL-5 melanoma = system: SK-MEL-5 melanoma
UACC-62 melanoma = system: UACC-62 melanoma
SF-539 CNS = system: SF-539 CNS
UO-31 renal = system: UO-31 renal
SK-MEL-2 melanoma = system: SK-MEL-2 melanoma
K-562 leukemia = system: K-562 leukemia
786-0 renal = system: 786-0 renal
NCI-H226 lung = system: NCI-H226 lung
CCRF-CEM leukemia = system: CCRF-CEM leukemia
TK-10 renal = system: TK-10 renal
A549 NSCLC = system: A549 NSCLC
MCF7 breast = system: MCF7 breast
OVCAR-3 ovarian = system: OVCAR-3 ovarian
A498 renal = system: A498 renal
CAKI-1 renal = system: CAKI-1 renal
HL-60(TB) leukemia = system: HL-60(TB) leukemia

In the case of `O=C(O)CCCCCCCCCCN1C(=O)/C(=C/c2cnc(-c3ccc(Cl)cc3)s2)SC1=S`, the GI50 (T-47D breast) is reported as 4.77 µM, the TGI (T-47D breast) is reported as > 100 µM and the GI50 (HS 578T breast) is reported as 11.7 µM. The TGI (HS 578T breast) was > 100 µM, the GI50 (ACHN renal) was 2380 nM and the TGI (ACHN renal) was 11.7 µM. For the same compound, the GI50 (HT29 colon) was > 100 µM, the TGI (HT29 colon) was > 100 µM and the GI50 (OVCAR-4 ovarian) was 5.56 µM. The TGI (OVCAR-4 ovarian) was > 100 µM, the GI50 (SNB-19 CNS) was 2860 nM and the TGI (SNB-19 CNS) was 9.76 µM. It also gave a GI50 (BT-549 breast) of 1950 nM, a TGI (BT-549 breast) of 6.1 µM and a GI50 (EKVX NSCLC) of 1840 nM. For the same compound, the TGI (EKVX NSCLC) was 5.13 µM, the GI50 (LOX IMVI melanoma) was 1690 nM and the TGI (LOX IMVI melanoma) was 3.87 µM. For the same compound, the GI50 (HCT-15 colon) was 1710 nM, the TGI (HCT-15 colon) was 3.67 µM and the GI50 (KM12 colon) was 2930 nM. For the same compound, the TGI (KM12 colon) was > 100 µM, the GI50 (OVCAR-8 ovarian) was 1650 nM and the TGI (OVCAR-8 ovarian) was 5.11 µM. For the same compound, the GI50 (M14 melanoma) was 2100 nM, the TGI (M14 melanoma) was 5.71 µM and the GI50 (NCI/ADR-RES ovarian) was 1690 nM. It also gave a TGI (NCI/ADR-RES ovarian) of 8.18 µM, a GI50 (SW-620 colon) of 2520 nM and a TGI (SW-620 colon) of 7.21 µM. It also gave a GI50 (MALME-3M melanoma) of 5.92 µM, a TGI (MALME-3M melanoma) of 28.1 µM and a GI50 (NCI-H23 lung) of 2430 nM. The TGI (NCI-H23 lung) was 8.95 µM, the GI50 (MDA-MB-468 breast) was 2630 nM and the TGI (MDA-MB-468 breast) was 12 µM. It also gave a GI50 (DU-145 prostate) of 1810 nM, a TGI (DU-145 prostate) of 30 µM and a GI50 (SN12C renal) of 1390 nM. For the same compound, the TGI (SN12C renal) was 2890 nM, the GI50 (HOP-92 NSCLC) was 292 nM and the TGI (HOP-92 NSCLC) was 1790 nM. The GI50 (NCI-H522 lung) was 1680 nM, the TGI (NCI-H522 lung) was 4.55 µM and the GI50 (SNB-75 CNS) was 15.4 µM. For the same compound, the TGI (SNB-75 CNS) was 42.3 µM, the GI50 (UACC-257 melanoma) was 5.6 µM and the TGI (UACC-257 melanoma) was > 100 µM. For the same compound, the GI50 (MDA-MB-435) was 4.69 µM, the TGI (MDA-MB-435) was > 100 µM and the GI50 (SK-MEL-28 melanoma) was 2690 nM. For the same compound, the GI50 (SR leukemia) was 367 nM, the TGI (SR leukemia) was 4.8 µM and the GI50 (SF-268 CNS) was 4.99 µM. For the same compound, the TGI (SF-268 CNS) was > 100 µM, the GI50 (HOP-62 NSCLC) was 3.81 µM and the TGI (HOP-62 NSCLC) was 15.9 µM. The GI50 (HCT-116 colon) was 1750 nM, the TGI (HCT-116 colon) was 7.51 µM and the GI50 (SK-OV-3 ovarian) was 3.24 µM. The TGI (SK-OV-3 ovarian) was 8.72 µM, the GI50 (MOLT-4 leukemia) was 3.39 µM and the TGI (MOLT-4 leukemia) was > 100 µM. The GI50 (MDA-MB-231 breast) was 1650 nM, the TGI (MDA-MB-231 breast) was 4.48 µM and the GI50 (OVCAR-5 ovarian) was 2590 nM. For the same compound, the TGI (OVCAR-5 ovarian) was > 100 µM, the GI50 (U251 CNS) was 2070 nM and the TGI (U251 CNS) was 6.06 µM. It also gave a GI50 (SF-295 CNS) of 2290 nM, a TGI (SF-295 CNS) of 7.26 µM and a GI50 (PC-3 prostate) of 1260 nM. It also gave a TGI (PC-3 prostate) of 4.9 µM, a GI50 (IGROV1 ovarian) of 2890 nM and a TGI (IGROV1 ovarian) of 13.7 µM. For the same compound, the GI50 (RXF 393 renal) was 12.1 µM, the TGI (RXF 393 renal) was 47.3 µM and the GI50 (HCC-2998 colon) was 5.03 µM. The TGI (HCC-2998 colon) was > 100 µM, the GI50 (RPMI-8226 leukemia) was 10.3 µM and the TGI (RPMI-8226 leukemia) was > 100 µM. For the same compound, the GI50 (NCI-H460 lung) was 1370 nM, the TGI (NCI-H460 lung) was > 100 µM and the GI50 (COLO 205 colon) was > 100 µM. For the same compound, the TGI (COLO 205 colon) was > 100 µM, the GI50 (SK-MEL-5 melanoma) was 1860 nM and the TGI (SK-MEL-5 melanoma) was 4.74 µM. The GI50 (UACC-62 melanoma) was 1570 nM, the TGI (UACC-62 melanoma) was 3.29 µM and the GI50 (SF-539 CNS) was 3.18 µM. It also gave a TGI (SF-539 CNS) of 13.2 µM, a GI50 (UO-31 renal) of 3.76 µM and a TGI (UO-31 renal) of 28.2 µM. For the same compound, the GI50 (SK-MEL-2 melanoma) was 2120 nM, the TGI (SK-MEL-2 melanoma) was 5.02 µM and the GI50 (K-562 leukemia) was 3.71 µM. For the same compound, the TGI (K-562 leukemia) was > 100 µM, the GI50 (786-0 renal) was 2640 nM and the TGI (786-0 renal) was 9.67 µM. The GI50 (NCI-H226 lung) was 6.46 µM, the TGI (NCI-H226 lung) was 57.2 µM and the GI50 (CCRF-CEM leukemia) was 3.11 µM. The TGI (CCRF-CEM leukemia) was > 100 µM, the GI50 (TK-10 renal) was 5.48 µM and the TGI (TK-10 renal) was 16.1 µM. It also gave a GI50 (A549 NSCLC) of 1010 nM, a TGI (A549 NSCLC) of 4.51 µM and a GI50 (MCF7 breast) of 3.73 µM. For the same compound, the TGI (MCF7 breast) was > 100 µM, the GI50 (OVCAR-3 ovarian) was 4.87 µM and the TGI (OVCAR-3 ovarian) was 51.4 µM. It also gave a GI50 (A498 renal) of 15.9 µM, a TGI (A498 renal) of 34.5 µM and a GI50 (CAKI-1 renal) of 3.31 µM. The TGI (CAKI-1 renal) was 14.3 µM, the GI50 (HL-60(TB) leukemia) was 3.91 µM and the TGI (HL-60(TB) leukemia) was > 100 µM.
